Measured values taken from patent US9302999B2, “Substituted triazoles as herbicides” (E. I. DU PONT DE NEMOURS AND COMPANY, priority 2012, dated 2016).

Assays:
Type in all cases: in vivo
[1] = tested on: ryegrass, Italian (Italian ryegrass, Lolium multiflorum); assay: Test C pre-/postemergence: ryegrass, Italian
In short: (§1)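 Preemergence on seeds in loam/sand, postemergence on 2–18 cm (1–4-leaf) plants in peat-based medium; compounds in non-phytotoxic solvent with surfactant. After 13–15 days in greenhouse, visual rating versus controls, 0 (no effect) to 100 (complete control).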

soybean (Glycine max) = assay: Test C pre-/postemergence: soybean
In short: as §1

[2] = tested on: wheat (Triticum aestivum); assay: Test A pre-/postemergence: wheat
In short: (§2)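 Pre: directed soil spray after planting in loam + sand. Post: same formulation (non-phytotoxic solvent + surfactant) on 1–2-leaf plants, 2–10 cm. Greenhouse ~10 d; visual injury 0–100 vs untreated.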

[3] = tested on: blackgrass (Alopecurus myosuroides); assay: Test C pre-/postemergence: blackgrass
In short: as §1

[4] = tested on: nutsedge, yellow (yellow nutsedge, Cyperus esculentus); assay: Test C pre-/postemergence: nutsedge, yellow
In short: as §1

[5] = tested on: pigweed (Amaranthus retroflexus); assay: Test C pre-/postemergence: pigweed
In short: as §1

[6] = tested on: morningglory (Ipomoea spp.); assay: Test A pre-/postemergence: morningglory
In short: as §2

[7] = tested on: barnyardgrass (Echinochloa crus-galli); assay: Test A pre-/postemergence: barnyardgrass
In short: as §2

[8] = tested on: large crabgrass (Digitaria sanguinalis); assay: Test C pre-/postemergence: large crabgrass
In short: as §1

[9] = tested on: johnsongrass (Sorghum halepense); assay: Test C pre-/postemergence: johnsongrass
In short: as §1

corn (Zea mays) = assay: Test A pre-/postemergence: corn
In short: as §2

[10] = Postemergence, 16 g ai/ha, scale 0 to 100, 0 no effect, 100 complete control
[11] = Postemergence, 31 g ai/ha, scale 0 to 100 (0 no effect, 100 complete control)
[12] = Postemergence, 62 g ai/ha, scale 0 to 100 (0 no effect, 100 complete control)
[13] = Postemergence, 125 g ai/ha, scale 0 to 100, 0 no effect, 100 complete control
[14] = Preemergence, 16 g ai/ha, scale 0 (no effect) to 100 (complete control)
[15] = Preemergence, 31 g ai/ha, scale of 0 to 100, 0 is no effect, 100 is complete control
[16] = Preemergence, 62 g ai/ha, scale of 0 to 100, 0 is no effect, 100 is complete control
[17] = Preemergence, 125 g ai/ha, scale 0 to 100, 0 no effect, 100 complete control
[18] = Postemergence, 125 g ai/ha, 0 to 100 scale, 0 is no effect, 100 is complete control
[19] = Postemergence, 500 g ai/ha, visual rating on 0 to 100 scale (0 no effect, 100 complete control), approximately ten days
[20] = Preemergence, 125 g ai/ha, 0 to 100 scale where 0 is no effect and 100 is complete control
[21] = Preemergence, 500 g ai/ha, 0 to 100 scale (0 no effect, 100 complete control)
[22] = Preemergence, 250 g ai/ha, scale 0 to 100, 0 no effect, 100 complete control
[23] = Postemergence, 500 g ai/ha, 0 to 100 scale, 0 is no effect, 100 is complete control

FCc1nn(-c2ccc(F)cc2)nc1Oc1ccnc(C(F)(F)F)c1 [Compound 160]
85: Plant response rating, Johnsongrass [9, 14]
45: Plant response rating, Ryegrass, Italian [1, 13] | Plant response rating, Blackgrass [3, 12]
25: Plant response rating, Soybean (soybean (Glycine max); [11]) | Plant response rating, Soybean (soybean (Glycine max); [12]) | Plant response rating, Blackgrass [3, 10] | Plant response rating, Crabgrass, Large [8, 11]
65: Plant response rating, Blackgrass [3, 13]
10: Plant response rating, Ryegrass, Italian [1, 10] | Plant response rating, Nutsedge, Yellow [4, 11] | Plant response rating, Nutsedge, Yellow [4, 12] | Plant response rating, Johnsongrass [9, 10]
0: Plant response rating, Soybean (soybean (Glycine max); [14]) | Plant response rating, Blackgrass [3, 14] | Plant response rating, Nutsedge, Yellow [4, 14] | Plant response rating, Nutsedge, Yellow [4, 15] | Plant response rating, Nutsedge, Yellow [4, 16] | Plant response rating, Nutsedge, Yellow [4, 17]
60: Corn plant response rating (corn (Zea mays); [19])
90: Plant response rating, Ryegrass, Italian [1, 17] | Plant response rating, Blackgrass [3, 16] | Plant response rating, Blackgrass [3, 17] | Plant response rating, Pigweed [5, 14] | Plant response rating, Morningglory [6, 18] | Morningglory plant response rating [6, 19] | Barnyardgrass plant response rating [7, 19] | Plant response rating, Crabgrass, Large [8, 14]
5: Plant response rating, Ryegrass, Italian [1, 14] | Plant response rating, Soybean (soybean (Glycine max); [15]) | Plant response rating, Nutsedge, Yellow [4, 10]
20: Plant response rating, Soybean (soybean (Glycine max); [16]) | Plant response rating, Soybean (soybean (Glycine max); [17]) | Plant response rating, Crabgrass, Large [8, 10] | Plant response rating, Corn (corn (Zea mays); [20])
70: Plant response rating, Morningglory [6, 21] | Plant response rating, Barnyardgrass [7, 18]
95: Plant response rating, Pigweed [5, 10] | Plant response rating, Pigweed [5, 11]
100: Plant response rating, Pigweed [5, 15] | Plant response rating, Pigweed [5, 16] | Plant response rating, Pigweed [5, 17] | Plant response rating, Barnyardgrass [7, 20] | Plant response rating, Barnyardgrass [7, 21] | Plant response rating, Crabgrass, Large [8, 15] | Plant response rating, Crabgrass, Large [8, 16] | Plant response rating, Crabgrass, Large [8, 17] | Plant response rating, Johnsongrass [9, 15] | Plant response rating, Johnsongrass [9, 16] | Plant response rating, Johnsongrass [9, 17]
40: Plant response rating, Wheat [2, 18] | Plant response rating, Blackgrass [3, 15] | Plant response rating, Morningglory [6, 20] | Plant response rating, Crabgrass, Large [8, 13] | Plant response rating, Corn (corn (Zea mays); [21])
50: Wheat plant response rating [2, 19] | Plant response rating, Wheat [2, 21]
80: Plant response rating, Ryegrass, Italian [1, 16]
30: Plant response rating, Ryegrass, Italian [1, 11] | Plant response rating, Ryegrass, Italian [1, 12] | Plant response rating, Soybean (soybean (Glycine max); [13]) | Plant response rating, Wheat [2, 20] | Plant response rating, Johnsongrass [9, 13] | Plant response rating, Corn (corn (Zea mays); [18])
35: Plant response rating, Blackgrass [3, 11] | Plant response rating, Crabgrass, Large [8, 12]
98: Plant response rating, Pigweed [5, 12] | Plant response rating, Pigweed [5, 13]
15: Plant response rating, Ryegrass, Italian [1, 15] | Plant response rating, Soybean (soybean (Glycine max); [10]) | Plant response rating, Nutsedge, Yellow [4, 13] | Plant response rating, Johnsongrass [9, 11]

CCOCc1nn(-c2ccc(F)cc2)nc1Oc1ccnc(C(F)(F)F)c1 [Compound 163]
35: Plant response rating, Johnsongrass [9, 16]
70: Plant response rating, Barnyardgrass [7, 18]
60: Plant response rating, Johnsongrass [9, 17] | Plant response rating, Johnsongrass [9, 22]
65: Plant response rating, Ryegrass, Italian [1, 17] | Plant response rating, Crabgrass, Large [8, 15]
100: Plant response rating, Pigweed [5, 17] | Plant response rating, Pigweed [5, 22] | Barnyardgrass plant response rating [7, 23] | Plant response rating, Barnyardgrass [7, 21] | Plant response rating, Crabgrass, Large [8, 16] | Plant response rating, Crabgrass, Large [8, 17] | Plant response rating, Crabgrass, Large [8, 22]
80: Morningglory plant response rating [6, 23]
85: Plant response rating, Ryegrass, Italian [1, 22] | Plant response rating, Blackgrass [3, 16]
30: Plant response rating, Morningglory [6, 18] | Plant response rating, Morningglory [6, 21] | Plant response rating, Johnsongrass [9, 15] | Corn plant response rating (corn (Zea mays); [23])
40: Wheat plant response rating [2, 23]
95: Plant response rating, Blackgrass [3, 22] | Plant response rating, Pigweed [5, 15]
75: Plant response rating, Nutsedge, Yellow [4, 22]
20: Plant response rating, Soybean (soybean (Glycine max); [22]) | Plant response rating, Wheat [2, 18] | Plant response rating, Nutsedge, Yellow [4, 17] | Plant response rating, Corn (corn (Zea mays); [18])
10: Plant response rating, Ryegrass, Italian [1, 15] | Plant response rating, Soybean (soybean (Glycine max); [17]) | Plant response rating, Morningglory [6, 20] | Plant response rating, Corn (corn (Zea mays); [21])
5: Plant response rating, Soybean (soybean (Glycine max); [15]) | Plant response rating, Soybean (soybean (Glycine max); [16]) | Plant response rating, Blackgrass [3, 15]
45: Plant response rating, Ryegrass, Italian [1, 16]
90: Plant response rating, Blackgrass [3, 17] | Plant response rating, Barnyardgrass [7, 20]
98: Plant response rating, Pigweed [5, 16]
0: Plant response rating, Wheat [2, 20] | Plant response rating, Wheat [2, 21] | Plant response rating, Nutsedge, Yellow [4, 15] | Plant response rating, Nutsedge, Yellow [4, 16] | Plant response rating, Corn (corn (Zea mays); [20])
